What follows are compounds tested against factor B (Homo sapiens, UniProt P00751) (assay: assay of Biological Example 2.7). Conditions: assay of Biological Example 2.7 (Table 2).
Format: binding
Design: made in house; host or cells: drosophila cells

Chain of factor B (P00751 26-764): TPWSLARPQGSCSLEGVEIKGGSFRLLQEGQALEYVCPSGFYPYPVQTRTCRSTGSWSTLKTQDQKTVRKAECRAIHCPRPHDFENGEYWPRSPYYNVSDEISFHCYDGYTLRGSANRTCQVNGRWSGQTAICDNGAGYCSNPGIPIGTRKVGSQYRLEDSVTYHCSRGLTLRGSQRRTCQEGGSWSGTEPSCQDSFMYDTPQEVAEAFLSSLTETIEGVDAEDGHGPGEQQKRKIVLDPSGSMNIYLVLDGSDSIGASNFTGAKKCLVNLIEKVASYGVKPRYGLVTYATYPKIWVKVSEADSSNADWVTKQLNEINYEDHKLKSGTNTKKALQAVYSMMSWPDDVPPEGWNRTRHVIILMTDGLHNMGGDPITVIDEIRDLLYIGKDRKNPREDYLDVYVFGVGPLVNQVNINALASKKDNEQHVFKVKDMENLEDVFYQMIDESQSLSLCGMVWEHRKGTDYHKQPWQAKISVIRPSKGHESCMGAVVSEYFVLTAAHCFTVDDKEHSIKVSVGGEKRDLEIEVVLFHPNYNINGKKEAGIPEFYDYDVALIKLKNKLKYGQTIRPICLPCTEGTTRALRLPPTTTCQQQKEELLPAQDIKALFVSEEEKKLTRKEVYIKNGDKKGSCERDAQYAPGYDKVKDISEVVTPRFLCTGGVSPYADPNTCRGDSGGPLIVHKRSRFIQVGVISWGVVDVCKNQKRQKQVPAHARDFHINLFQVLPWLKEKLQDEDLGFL

Structure (SMILES) | IC50 [nM]
COc1cc(C)c2[nH]ccc2c1C1(c2nc3cc(C#N)ccc3o2)CC1C(=O)O (racemic) [Example 143, (±)-2-(5-Cyanobenzo[d]oxazol-2-yl)-2-(5-methoxy-7-methyl-1H-indol-4-yl)cyclopropanecarboxylic acid] | 7200
CCOC(=O)C(C)(c1nc2cc(C#N)ccc2o1)c1c(OC)cc(C)c2[nH]ccc12 (racemic) [Example 144-D, (±)-Ethyl 2-(5-cyanobenzo[d]oxazol-2-yl)-2-(5-methoxy-7-methyl-1H-indol-4-yl)propanoate] | 7950
COc1cc(C)c2[nH]ccc2c1C(CC(=O)O)c1nc2cc(C#N)ccc2[nH]1 (racemic) [Example 145-D, (±)-3-(5-Cyano-1H-benzo[d]imidazol-2-yl)-3-(5-methoxy-7-methyl-1H-indol-4-yl)propanoic acid] | 41
COc1cc(C)c2[nH]ccc2c1C(CCO)c1nc2cc(C#N)ccc2[nH]1 (racemic) [Example 145-E, (±)-2-(3-hydroxy-1-(5-methoxy-7-methyl-1H-indol-4-yl)propyl)-1H-benzo[d]imidazole-5-carbonitrile] | 250
COc1cc(C)c2[nH]ccc2c1C(CCC(=O)O)c1nc2cc(C#N)ccc2[nH]1 (racemic) [Example 146-C, (±)-4-(5-Cyano-1H-benzo[d]imidazol-2-yl)-4-(5-methoxy-7-methyl-1H-indol-4-yl)butanoic acid] | 59
COc1cc(C)c2[nH]ccc2c1C(C)(CCC(=O)O)c1nc2cc(C#N)ccc2o1 (racemic) [Example 150-C, (±)-4-(5-cyanobenzo[d]oxazol-2-yl)-4-(5-methoxy-7-methyl-1H-indol-4-yl)pentanoic acid] | 1020
COc1cc(C)c2[nH]ccc2c1C(CC(C)CO)c1nc2cc(C#N)ccc2[nH]1 (racemic) [Example 151-C, (±)-2-(4-Hydroxy-1-(5-methoxy-7-methyl-1H-indol-4-yl)-3-methylbutyl)-1H-benzo[d]imidazole-5-carbonitrile] | 92
COc1cc(C)c2[nH]ccc2c1C(Cc1nn[nH]n1)c1nc2cc(C#N)ccc2[nH]1 (racemic) [Example 152, (±)-2-(1-(5-Methoxy-7-methyl-1H-indol-4-yl)-2-(2H-tetrazol-5-yl)ethyl)-1H-benzo[d]imidazole-5-carbonitrile] | 67
COc1cc(C)c2[nH]ccc2c1C(Cc1nn[nH]n1)c1nc2cc(C#N)ccc2o1 (racemic) [Example 153, (±)-2-(1-(5-Methoxy-7-methyl-1H-indol-4-yl)-2-(2H-tetrazol-5-yl)ethyl)benzo[d]oxazole-5-carbonitrile] | 1110
COc1cc(C)c2[nH]ccc2c1C(C)(Cc1nn[nH]n1)c1nc2cc(C#N)ccc2o1 (racemic) [Example 154, (±)-2-(2-(5-Methoxy-7-methyl-1H-indol-4-yl)-1-(2H-tetrazol-5-yl)propan-2-yl)benzo[d]oxazole-5-carbonitrile] | 21100
COc1cc(C)c2[nH]ccc2c1C(C)(CCC(=O)O)c1nc2cc(C#N)ccc2[nH]1 (racemic) [Example 155-M, (±)-4-(5-Cyano-1H-benzo[d]imidazol-2-yl)-4-(5-methoxy-7-methyl-1H-indol-4-yl)pentanoic acid] | 20
COC(=O)CC(C)(c1nc2cc(C#N)ccc2[nH]1)c1c(OC)cc(C)c2c1CCN2 (racemic) [Example 156-K, (±)-Methyl 3-(5-cyano-1H-benzo[d]imidazol-2-yl)-3-(5-methoxy-7-methylindolin-4-yl)butanoate] | 130
COc1cc(C)c2[nH]ccc2c1C(CCCC(=O)O)c1nc2cc(C#N)ccc2[nH]1 (racemic) [Example 157, (±)-5-(5-Cyano-1H-benzo[d]imidazol-2-yl)-5-(5-methoxy-7-methyl-1H-indol-4-yl)pentanoic acid] | 39
COc1cc(C)c2[nH]ccc2c1C(c1nc2cc(C#N)ccc2o1)C(C)(C)C(=O)O (racemic) [Example 158, (±)-3-(5-Cyanobenzo[d]oxazol-2-yl)-3-(5-methoxy-7-methyl-1H-indol-4-yl)-2,2-dimethylpropanoic acid] | 21000
COc1cc(C)c2[nH]ccc2c1C(N)(c1nc2cc(C#N)ccc2o1)C(F)(F)F (single isomer, unassigned) [137-B b) (tr = 2.7 min), (+) or (−)-2-(1-amino-2,2,2-trifluoro-1-(5-methoxy-7-methyl-1H-indol-4-yl)ethyl)benzo[d]oxazole-5-carbonitrile] | 20
COc1cc(C)c2[nH]ccc2c1C(N)(c1nc2cc(C#N)ccc2o1)C(F)(F)F (single isomer, unassigned) [137-B b) (tr = 4.6 min), (−) or (+)-2-(1-amino-2,2,2-trifluoro-1-(5-methoxy-7-methyl-1H-indol-4-yl)ethyl)benzo[d]oxazole-5-carbonitrile] | 3210
CCc1cc(C)c2[nH]ccc2c1C(C)(N)c1nc2cc(C#N)ccc2o1 (single isomer, unassigned) [137-F b) (tr = 3.3 min), (+) or (−)-2-(1-amino-1-(5-ethyl-7-methyl-1H-indol-4-yl)ethyl)benzo[d]oxazole-5-carbonitrile] | 170
CCc1cc(C)c2[nH]ccc2c1C(C)(N)c1nc2cc(C#N)ccc2o1 (single isomer, unassigned) [137-F b) (tr = 4.9 min), (−) or (+)-2-(1-amino-1-(5-ethyl-7-methyl-1H-indol-4-yl)ethyl)benzo[d]oxazole-5-carbonitrile] | 10
CNC(C)(c1nc2cc(C#N)ccc2o1)c1c(OC)cc(C)c2[nH]ccc12 (single isomer, unassigned) [137-M b) (tr = 2.9 min), (+) or (−)-2-(1-(5-methoxy-7-methyl-1H-indol-4-yl)-1-(methylamino)ethyl)benzo[d]oxazole-5-carbonitrile] | 370
CCOC(=O)COC(c1nc2cc(C#N)ccc2[nH]1)(c1c(OC)cc(C)c2[nH]ccc12)C(F)(F)F (single isomer, unassigned) [Example 35-D, (+) or (−)-Ethyl 2-(1-(5-cyano-1H-benzo[d]imidazol-2-yl)-2,2,2-trifluoro-1-(5-methoxy-7-methyl-1H-indol-4-yl)ethoxy)acetate] | 24
Cc1cc(O)c(C(N)(c2nc3cc(C#N)ccc3[nH]2)C(F)(F)F)c2cc[nH]c12 (single isomer, unassigned) [Example 141, (+) or (−)-2-(1-amino-2,2,2-trifluoro-1-(5-hydroxy-7-methyl-1H-indol-4-yl)ethyl)-1H-benzo[d]imidazole-5-carbonitrile] | 150
Cc1cc(Br)c(C(C)(N)c2nc3cc(C#N)ccc3[nH]2)c2cc[nH]c12 (single isomer, unassigned; (+)) [137-A b) (+), (+)-2-(1-amino-1-(5-bromo-7-methyl-1H-indol-4-yl)ethyl)-1H-benzo[d]imidazole-5-carbonitrile] | 120
[2H]C([2H])([2H])OC(C)(c1nc2cc(C#N)ccc2[nH]1)c1c(OC)cc(C)c2[nH]ccc12 (single isomer, unassigned; (+)) [137-I b) (+), (+)-2-(1-(^2H3)methoxy-1-(5-methoxy-7-methyl-1H-indol-4-yl)ethyl)-1H-benzo[d]imidazole-5-carbonitrile] | 110
